Results from patent US20120165559A1, “Compounds Having a Physiological Effect” (priority 2009, published 2012).
Like-named read-outs stand apart in the source and are kept apart here.

How the values were obtained:
panel of flavor experts = test: Comparative evaluation of enantiomers 1′ and 1″ and the racemic mixture by a panel of flavor experts; type: in vivo; details: enantiomers taken separately versus each other and versus the racemic mixture
Description: The enantiopure compounds 1′ and 1″ obtained in examples 21 and 22 and also the racemic mixture of compound 1 obtained in example 2 were subjected to a panel of flavor experts for a comparative evaluation of the organoleptic and physiological qualities.

[1] = tested on: skin and the mucous membranes, particularly of the mouth, of the nasal fossa and of the throat; test: Organoleptic and physiological qualities of the compounds, noted by the inventors and flavor experts; type: in vivo; details: for Organoleptic qualities: Tables I-V
Description: The invention is based on the following observation, made by the inventors and backed up by flavor experts, that the physiological effects of N-ethyl-2-(2-isopropyl-5-methylcyclohexyl)acetamide: As mentioned above, the compounds of general formula (I) according to the invention have particular physiological effects. They cause a cool and/or warm sensation on the skin and the mucous membranes, particularly of the mouth, of the nasal fossa and of the throat. Some of these amides cause a more or less intense refreshing physiological effect giving the foods to which they are added a sensation of freshness, whereas others cause a warming physiological effect. Some of them can also cause other physiological effects, such as tingling or a piquant-burning physiological effect characteristic of substances that activate the trigeminal nerve, therefore giving the foods to which they are added a spicy sensation.

panelists [2] = test: Mint flavoring evaluated in fondant; type: in vivo; details: in a mint flavoring, dosage of 50 ppm
Description: The molecule was tested in a mint flavoring and evaluated in fondant at a dosage of 50 ppm.

[3] = tested on: panelists / flavor experts; test: Evaluation in mineral water; type: in vivo
Description: The molecule was evaluated in mineral water at a dosage of 30 ppm. […] The evaluation of the organoleptic properties of compound 10 was carried out in mineral water at a concentration of 1 ppm.

panelists [4] = test: Citrus fruit flavoring in fatty filling; type: in vivo; details: 10% in a citrus fruit flavoring, flavoring at 0.3% in fatty filling
Description: The molecule was tested at 10% in a citrus fruit flavoring, the flavoring obtained was at a dose of 0.3% in fatty filling.

panelists [5] = test: Curry/capsicum flavoring evaluated in crackers; type: in vivo; details: flavoring in crackers at 5% (final dosage 500 ppm)
Description: Compound 10 was subsequently tested in a curry/capsicum flavoring and evaluated in crackers at 5% (final dosage: 500 ppm). [table]

panel of tasters = test: Flavorings for oro-dental hygiene (mouthwashes, toothpaste); type: in vivo; details: alcoholic mouthwash, nonalcoholic mouthwash and toothpaste
Description: Compound 10 was tested in various applications: in an alcoholic mouthwash and a nonalcoholic mouthwash and in toothpaste. […] This molecule is very advantageous since it provides a tingling sensation on the edge of the tongue, which is piquant like a capsicum, and salivating. [table] Dosage of flavoring 0.2% Dosage of flavoring 0.2% Dosage of flavoring 1%

[6] = tested on: skin and the mucous membranes, particularly of the mouth, of the nasal fossa and of the throat; details: known from WO 2007/089252; cited from earlier work

Structure (SMILES)	Organoleptic qualities [1]	further results
C=C(C)[C@H]1CC[C@H](C)C[C@H]1CC(=O)NC [Compound 1′, N-methylamide of (1′S,2′S,5′S)-2-[(2′-isopropenyl-5′-methyl)cyclohex-1-yl]acetic acid]	–	difference in perception threshold and intensity of the refreshing effect felt (panel of flavor experts): did not make it possible to demonstrate any notable difference
CC1CCC(C(C)C)C(CC(=O)NCCO)C1 (stereo not shown) [Compound 6, N-(2-hydroxyethyl)-2-(2-isopropyl-5-methylcyclohexyl)acetamide]	Refreshing and tingling,	–
CNC(=O)CC1CC(C)CCC1C(C)C (racemic) [Compound 1, N-methyl-2-(2-isopropyl-5-methylcyclohexyl)acetamide]	–	effectiveness as refreshing agent, in terms of intensity and of perception threshold ([1]; comparative study among the refreshing agents 1, 19, 15, 17, 18, 8, 9): the most effective; sensation perceived (panelists [2]): intense freshness which lasts for a few minutes; aromatic note of the drink ([3]; dosage of 30 ppm): minty, pine, liquoricy, warming, piquant, salivating; sensation felt ([3]; dosage of 30 ppm): freshness which came very rapidly after swallowing; sensation perceived (panelists [4]): persistent freshness, and a change in the lemon profile
CNC(=O)CC1=C(C(C)C)CCC(C)C1 (stereo not shown) [Compound 17, 2-(2-isopropyl-5-methylcyclohex-1-enyl)-N-methylacetamide]	Refreshing	melting point: 82 °C
C=C(C)[C@@H]1CC[C@@H](C)C[C@@H]1CC(=O)NC [Compound 1″, N-methylamide of (1′R,2′R,5′R)-2-[(2′-isopropenyl-5′-methyl)cyclohex-1-yl]acetic acid]	–	difference in perception threshold and intensity of the refreshing effect felt (panel of flavor experts): did not make it possible to demonstrate any notable difference
CNC(=O)C(C)C1CC(C)CCC1C(C)C (stereo not shown) [Compound 8, 2-(2-isopropyl-5-methylcyclohexyl)-N-methylpropionamide]	Piquant, slight	–
CC1CCC(C(C)C)C(CC(=O)Nc2ccc(CC#N)cc2)C1 (stereo not shown) [Compound 13, N-(4-cyanomethylphenyl)-2-(2-isopropyl-5-methylcyclohexyl)acetamide]	Warm	–
CC(C)CNC(=O)CC1CC(C)CCC1C(C)C (stereo not shown) [Compound 2, N-isobutyl-2-(2-isopropyl-5-methylcyclohexyl)acetamide]	Refreshing and tingling	–
COc1cc(CNC(=O)CC2CC(C)CCC2C(C)C)ccc1O (stereo not shown) [Compound 10, N-(4-hydroxy-3-methoxybenzyl)-2-(2-isopropyl-5-methylcyclohexyl)acetamide]	Warm and piquant like pepper, with a salivating effect	physiological effect [1]: strong piquant-burning physiological effect; duration of sensation (panelists [5]): more longlasting sensation; sensation felt (panel of tasters): piquant and warming sensation; sensation felt ([3]; concentration of 1 ppm): burning and salivation sensation which comes immediately after depositing on the tongue
CNC(=O)CC1C=C(C)CCC1C(C)C (stereo not shown) [Compound 19, 2-(6-isopropyl-3-methylcyclohex-2-enyl)-N-methylacetamide]	Refreshing with a delayed	–
CC1CCC(C(C)C)C(CC(=O)Nc2ccc(C#N)cc2)C1 (stereo not shown) [Compound 12, N-(4-cyanophenyl)-2-(2-isopropyl-5-methylcyclohexyl)acetamide]	Warm	–
CCNC(=O)CC1CC(C)CCC1C(C)C (stereo not shown) [N-ethyl-2-(2-isopropyl-5-methylcyclohexyl)acetamide]	–	physiological effect [6]: refreshing agent
CNC(=O)CC(C)C1CC(C)CCC1C(C)C (stereo not shown) [Compound 9, 3-(2-isopropyl-5-methylcyclohexyl)-N-methylbutyramide]	Cool	–
CC1CCC(C(C)C)C(CC(=O)NCC(C)(C)O)C1 (stereo not shown) [Compound 7, N-(2-hydroxy-2-methylpropyl)-2-(2-isopropyl-5-methylcyclohexyl)acetamide]	Woody, piquant, and cold,	–
CC1CCC(C(C)C)C(CC(=O)NCc2ccc3c(c2)OCO3)C1 (stereo not shown) [Compound 14, N-benzo[1,3]dioxol-5-ylmethyl-2-(2-isopropyl-5-methylcyclohexyl)acetamide]	Warm and cold at the back of the throat, with a vanilla note	–
CNC(=O)C=C1CC(C)CCC1C(C)C (stereo not shown) [Compound 18, 2-(2-isopropyl-5-methylcyclohexylidene)-N-methylacetamide]	Refreshing	–
CC1CCC(C(C)C)C(CC(=O)NCC(=O)O)C1 (stereo not shown) [Compound 3, [2-(2-isopropyl-5-methylcyclohexyl)acetylamino]acetatic acid]	Warm	–
C=C(C)C1CCC(C)CC1CC(=O)NCc1ccc(O)c(OC)c1 (stereo not shown) [Compound 16, N-(4-hydroxy-3-methoxybenzyl)-2-(2-isopropenyl-5-methylcyclohexyl)acetamide]	Powerful piquant with delayed effect, salivating, slightly woody	–
COC(=O)c1ccccc1NC(=O)CC1CC(C)CCC1C(C)C (stereo not shown) [Compound 11, N-(2-methyloxycarbonylphenyl)-2-(2-isopropyl-5-methylcyclohexyl)acetamide]	Warm	physiological effect [1]: notable warming physiological effect, devoid of the piquant-burning aspect
CC(=O)OCCNC(=O)CC1CC(C)CCC1C(C)C (stereo not shown) [Compound 5, [2-(2-isopropyl-5-methylcyclohexyl)acetylamino]ethyl acetate]	Persistent mentholated	–
C=C(C)C1CCC(C)CC1CC(=O)NC (stereo not shown) [Compound 15, 2-(2-isopropenyl-5-methylcyclohexyl)-N-methylacetamide]	Refreshing	–
